According to ChEMBL document CHEMBL1275460, “Molecular characterization and epidemiology of extended-spectrum-beta-lactamase-producing Escherichia coli and Klebsiella pneumoniae isolates causing health care-associated infection in Thailand, where the CTX-M family is endemic” (2008):
≈ marks a conversion by molar mass, not a printed value.

What was measured:
Type in all cases: functional
[1] = test system: Escherichia coli; test: Antimicrobial activity against extended-spectrum beta lactamase producing Escherichia coli expressing beta-lactamase CTX-M-3, CTX-M-15 and CTX-M-55 and other bla gene by Etest
[2] = test system: Klebsiella pneumoniae; test: Antimicrobial activity against extended-spectrum beta lactamase producing Klebsiella pneumoniae expressing beta-lactamase CTX-M-3, CTX-M-15 and CTX-M-55 and other bla gene by Etest
[3] = test system: Escherichia coli; test: Antimicrobial activity against extended-spectrum beta lactamase producing Escherichia coli expressing beta-lactamase CTX-M-14 and CTX-M-27 gene by Etest
[4] = test system: Klebsiella pneumoniae; test: Antimicrobial activity against extended-spectrum beta lactamase producing Klebsiella pneumoniae expressing beta-lactamase CTX-M-14 and CTX-M-27 gene and other bla gene by Etest
[5] = test system: Escherichia coli; test: Antimicrobial activity against extended-spectrum beta lactamase producing Escherichia coli by Etest
[6] = test system: Escherichia coli; test: Antimicrobial activity against extended-spectrum beta lactamase producing Escherichia coli expressing beta-lactamase CTX-M-3, CTX-M-15 and CTX-M-55 gene by Etest
[7] = test system: Klebsiella pneumoniae; test: Antimicrobial activity against extended-spectrum beta lactamase producing Klebsiella pneumoniae expressing beta-lactamase CTX-M-3, CTX-M-15 and CTX-M-55 gene by Etest
[8] = test system: Klebsiella pneumoniae; test: Antimicrobial activity against extended-spectrum beta lactamase producing Klebsiella pneumoniae expressing beta-lactamase CTX-M-14 and CTX-M-27 gene by Etest
[9] = test system: Escherichia coli; test: Antimicrobial activity against extended-spectrum beta lactamase producing Escherichia coli expressing beta-lactamase CTX-M-14 and CTX-M-27 and other bla gene by Etest
[10] = test system: Klebsiella pneumoniae; test: Antimicrobial activity against extended-spectrum beta lactamase producing Klebsiella pneumoniae by Etest
[11] = test system: Klebsiella pneumoniae; test: Antimicrobial activity against extended-spectrum beta lactamase producing Klebsiella pneumoniae assessed as resistant isolates by Etest
[12] = test system: Escherichia coli; test: Antimicrobial activity against extended-spectrum beta lactamase producing Escherichia coli expressing beta-lactamase CTX-M-3, CTX-M-15 and CTX-M-55 and other bla gene assessed as susceptible isolates by Etest
[13] = test system: Klebsiella pneumoniae; test: Antimicrobial activity against extended-spectrum beta lactamase producing Klebsiella pneumoniae expressing beta-lactamase CTX-M-3, CTX-M-15 and CTX-M-55 and other bla gene assessed as susceptible isolates by Etest
[14] = test system: Escherichia coli; test: Antimicrobial activity against extended-spectrum beta lactamase producing Escherichia coli expressing beta-lactamase CTX-M-14 and CTX-M-27 gene assessed as susceptible isolates by Etest; details: pooled result: one value given for 2 cell lines, strains, targets or settings
[15] = test system: Escherichia coli; test: Antimicrobial activity against extended-spectrum beta lactamase producing Escherichia coli assessed as resistant isolates by Etest
[16] = test system: Escherichia coli; test: Antimicrobial activity against extended-spectrum beta lactamase producing Escherichia coli expressing beta-lactamase CTX-M-14 and CTX-M-27 gene and other bla gene assessed as susceptible isolates by Etest; details: pooled result: one value given for 2 cell lines, strains, targets or settings
[17] = test system: Escherichia coli; test: Antimicrobial activity against extended-spectrum beta lactamase producing Escherichia coli expressing beta-lactamase CTX-M-3, CTX-M-15 and CTX-M-55 gene assessed as susceptible isolates by Etest
[18] = test system: Klebsiella pneumoniae; test: Antimicrobial activity against extended-spectrum beta lactamase producing Klebsiella pneumoniae expressing beta-lactamase CTX-M-3, CTX-M-15 and CTX-M-55 gene assessed as susceptible isolates by Etest

Row | Molecule | MIC90 [1] [µg/mL] | MIC90 [2] [µg/mL] | MIC90 [3] [µg/mL] | MIC90 [4] [µg/mL] | MIC50 [5] [µg/mL] | MIC90 [5] [µg/mL] | MIC90 [6] [µg/mL] | MIC90 [7] [µg/mL] | MIC90 [8] [µg/mL] | MIC90 [9] [µg/mL] | MIC50 [10] [µg/mL] | MIC90 [10] [µg/mL] | Activity [11] [%] | Activity [12] [%] | Activity [13] [%] | Activity [14] [%] | Activity [15] [%] | Activity [16] [%] | Activity [17] [%] | Activity [18] [%]
1 | CO/N=C(\C(=O)N[C@@H]1C(=O)N2C(C(=O)O)=C(COC(C)=O)CS[C@H]12)c1csc(N)n1 [CEFOTAXIME] | > 256 | > 256 | 128 (≈ 281 µM) | 256 (≈ 562 µM) | 256 (≈ 562 µM) | > 256 | > 256 | > 256 | 128 (≈ 281 µM) | 256 (≈ 562 µM) | 128 (≈ 281 µM) | > 256 | – | – | – | – | – | – | – | –
2 | CN(C)[C@@H]1C(O)=C(C(N)=O)C(=O)[C@@]2(O)C(O)=C3C(=O)c4c(O)cccc4[C@@](C)(O)[C@H]3C[C@@H]12 [TETRACYCLINE] | – | – | – | – | – | – | – | – | – | – | – | – | 85.7 | 4.9 | 4.9 | 16.7 | 87.5 | 5.9 | 4.8 | 4.8
3 | O=C(O)c1cn(C2CC2)c2cc(N3CCNCC3)c(F)cc2c1=O [CIPROFLOXACIN] | – | – | – | – | – | – | – | – | – | – | – | – | 76.6 | 11.1 | 11.1 | 25.7 | 78.1 | 8.3 | 20.4 | 20.4
4 | C[C@@H](O)[C@H]1C(=O)N2C(C(=O)O)=C(S[C@@H]3CN[C@H](C(=O)N(C)C)C3)[C@H](C)[C@H]12 [MEROPENEM] | 0.125 (≈ 0.326 µM) | 0.125 (≈ 0.326 µM) | 0.094 (≈ 0.245 µM) | 0.064 (≈ 0.167 µM) | 0.047 (≈ 0.123 µM) | 0.125 (≈ 0.326 µM) | 0.19 (≈ 0.495 µM) | 0.19 (≈ 0.495 µM) | 0.094 (≈ 0.245 µM) | 0.064 (≈ 0.167 µM) | 0.047 (≈ 0.123 µM) | 0.125 (≈ 0.326 µM) | – | – | – | – | – | – | – | –
5 | C[C@@H](O)[C@H]1C(=O)N2C(C(=O)O)=C(S[C@@H]3CN[C@H](C(=O)Nc4cccc(C(=O)O)c4)C3)[C@H](C)[C@H]12 [ERTAPENEM] | 0.5 (≈ 1.05 µM) | 0.5 (≈ 1.05 µM) | 0.19 (≈ 0.4 µM) | 0.25 (≈ 0.526 µM) | 0.094 (≈ 0.198 µM) | 0.38 (≈ 0.799 µM) | 0.38 (≈ 0.799 µM) | 0.38 (≈ 0.799 µM) | 0.19 (≈ 0.4 µM) | 0.25 (≈ 0.526 µM) | 0.094 (≈ 0.198 µM) | 0.38 (≈ 0.799 µM) | – | – | – | – | – | – | – | –
6 | CC(C)(O/N=C(\C(=O)N[C@@H]1C(=O)N2C(C(=O)[O-])=C(C[n+]3ccccc3)CS[C@H]12)c1csc(N)n1)C(=O)O [CEFTAZIDIME] | > 256 | > 256 | 16 (≈ 29.3 µM) | > 256 | 32 (≈ 58.5 µM) | 256 (≈ 468 µM) | 256 (≈ 468 µM) | 256 (≈ 468 µM) | 16 (≈ 29.3 µM) | > 256 | 128 (≈ 234 µM) | > 256 | – | – | – | – | – | – | – | –
7 | NCC[C@H](O)C(=O)N[C@@H]1C[C@H](N)[C@@H](O[C@H]2O[C@H](CN)[C@@H](O)[C@H](O)[C@H]2O)[C@H](O)[C@H]1O[C@H]1O[C@H](CO)[C@@H](O)[C@H](N)[C@H]1O [AMIKACIN] | – | – | – | – | – | – | – | – | – | – | – | – | 28.6 | 81 | 81 | 83.3 | 12.5 | 78.9 | 81 | 81
8 | GENTAMICIN | – | – | – | – | – | – | – | – | – | – | – | – | 76.4 | 19 | 19 | 33.3 | 66.3 | 30.3 | 24.1 | 24.1
9 | CO/N=C(\C(=O)N[C@@H]1C(=O)N2C(C(=O)O)=C(CSc3nc(=O)c(O)nn3C)CS[C@H]12)c1csc(N)n1 [CEFTRIAXONE] | > 256 | > 256 | > 256 | > 256 | > 256 | > 256 | > 256 | > 256 | > 256 | > 256 | > 256 | > 256 | – | – | – | – | – | – | – | –
10 | C[C@@H](O)[C@H]1C(=O)N2C(C(=O)O)=C(SCCNC=N)C[C@H]12 [IMIPENEM ANHYDROUS] | 0.38 (≈ 1.27 µM) | 0.38 (≈ 1.27 µM) | 0.5 (≈ 1.67 µM) | 0.38 (≈ 1.27 µM) | – | – | 0.5 (≈ 1.67 µM) | 0.5 (≈ 1.67 µM) | 0.5 (≈ 1.67 µM) | 0.38 (≈ 1.27 µM) | 0.25 (≈ 0.835 µM) | 0.38 (≈ 1.27 µM) | – | – | – | – | – | – | – | –
